For assay [1], the target named is soluble human BACE1 catalytic domain (Homo sapiens (Human), UniProt P56817). Description: BACE1 HTRF FRET Assay. The format is biochemical. To be noted: for Ki: Ki calculated from IC50 using the Cheng-Prusoff equation. An excerpt: A homogeneous time-resolved FRET assay can be used to determine IC50 values for inhibitors of the soluble human BACE1 catalytic domain. This assay monitors the increase of 620 nm fluorescence that resulted from BACE1 cleavage of an APPswedish APP^swe mutant peptide FRET substrate (QSY7-[…]-Europium-amide). This substrate contains an N-terminal QSY7 moiety that serves as a quencher of the C-terminal Europium fluorophore (620 nm Em). In the absence of enzyme activity, 620 nm fluorescence is low in the assay and increased linearly over 3 hours in the presence of uninhibited BACE1 enzyme Inhibition of BACE1 cleavage of the QSY7-APP^swe-Eu substrate by inhibitors is manifested as a suppression of 620 nm fluorescence.
soluble human BACE1 catalytic domain, sequence (P56817 75-416): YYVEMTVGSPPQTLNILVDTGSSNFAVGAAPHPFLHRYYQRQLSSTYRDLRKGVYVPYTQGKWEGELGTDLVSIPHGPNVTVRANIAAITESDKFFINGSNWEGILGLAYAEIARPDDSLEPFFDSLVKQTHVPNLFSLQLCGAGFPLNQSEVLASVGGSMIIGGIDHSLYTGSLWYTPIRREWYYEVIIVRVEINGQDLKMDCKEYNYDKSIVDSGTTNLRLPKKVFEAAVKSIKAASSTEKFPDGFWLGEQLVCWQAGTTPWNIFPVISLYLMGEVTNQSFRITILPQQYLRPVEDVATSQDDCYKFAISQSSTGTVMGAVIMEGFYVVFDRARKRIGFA
Reactions are initiated by addition of 10 μl of 600 nM QSY7-APP^swe-Eu substrate (200 nM final) to give a final reaction volume of 30 μl in a 384 well Nunc HTRF plate. The reactions are incubated at 30° C. for 1.5 hours. The 620 nm fluorescence is then read on a Rubystar HTRF plate reader (BMG Labtechnologies) using a 50 millisecond delay followed by a 400 millisecond acquisition time window Inhibitor IC50 values are derived from non-linear regression analysis of concentration response curves.

Assay [2] deals with purified human autoBACE-2 (Homo sapiens (Human), UniProt Q9Y5Z0). Description: BACE-2 Assay (BACE-HTRF assay). The class given is biochemical. Conditions: Ki calculated from IC50 using the Cheng-Prusoff equation; read-out: BACE2 Ki. The protocol:
Inhibitor IC50s at purified human autoBACE-2 are determined in a time-resolved endpoint proteolysis assay that measures hydrolysis of the QSY7-[…]-Eu-amide FRET peptide substrate (BACE-HTRF assay). […] DMSO is present at 5% final concentration in the assay. Following laser excitation of sample wells at 320 nm, the fluorescence signal at 620 nm is collected for 400 ms following a 50 μs delay on a RUBYstar HTRF plate reader (BMG Labtechnologies). Raw RFU data is normalized to maximum (1.0 nM BACE/DMSO) and minimum (no enzyme/DMSO) RFU values. […] The Ki values are calculated from the IC50 using the Cheng-Prusoff equation.

purified human autoBACE-2, sequence (Q9Y5Z0 63-473): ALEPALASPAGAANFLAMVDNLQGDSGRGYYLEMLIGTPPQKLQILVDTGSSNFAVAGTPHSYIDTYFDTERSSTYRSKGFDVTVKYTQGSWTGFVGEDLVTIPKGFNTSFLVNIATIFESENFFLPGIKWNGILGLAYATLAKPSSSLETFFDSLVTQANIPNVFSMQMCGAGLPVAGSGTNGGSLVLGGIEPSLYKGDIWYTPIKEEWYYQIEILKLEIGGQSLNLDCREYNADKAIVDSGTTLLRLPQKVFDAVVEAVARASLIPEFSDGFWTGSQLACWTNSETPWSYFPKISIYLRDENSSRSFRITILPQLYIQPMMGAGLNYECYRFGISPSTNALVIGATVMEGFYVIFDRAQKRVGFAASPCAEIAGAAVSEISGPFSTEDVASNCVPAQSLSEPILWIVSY

As usually defined, the Ki is a dissociation constant, usually derived from enzyme kinetics or from competition with a known ligand. Turning to `CN1C(=N)N[C@](C)(c2cc(NC(=S)c3ccc(Cl)cn3)ccc2F)CS1(=O)=O` [Example 1], the Ki was 9.1 nM in assay [1] and 1 nM in assay [2].

For the compound `COc1ccc(C(=S)Nc2ccc(F)c([C@]3(C)CS(=O)(=O)N(C)C(=N)N3)c2)nc1` [Example 2], the values for the Ki in assay [1] and in assay [2] were 57 nM and 8 nM, respectively.

Regarding `COCC(=S)Nc1ccc(F)c([C@]2(C)CS(=O)(=O)N(C)C(=N)N2)c1` [Example 3], the Ki in assay [1] was 152 nM; in assay [2], 2 nM.

Regarding `CN1C(=N)N[C@](C)(c2cc(NC(=S)C(F)F)ccc2F)CS1(=O)=O` [Example 4], the figures for the Ki in assay [1] and in assay [2] were 83 nM and 7 nM, respectively.

Turning to `CN1C(=N)N[C@](C)(c2cc(NC(=S)c3ccc(F)cn3)ccc2F)CS1(=O)=O` [Example 4b], the Ki in assay [1] was 25 nM; in assay [2], 2 nM.

Turning to `COc1cnc(C(=S)Nc2ccc(F)c([C@]3(C)CS(=O)(=O)N(C)C(=N)N3)c2)cn1` [Example 4c], the Ki in assay [1] is 3 nM; in assay [2] it was 4 nM.

Broadly, the inhibition is the relative decrease from the control value, in per cent. Turning to `CO/N=C(/Nc1ccc(F)c([C@]2(C)CS(=O)(=O)N(C)C(=N)N2)c1)c1ccc(OC)cn1` [Example 5], the inhibition at 10 µM in assay [1] (@ 10 uM) is 47%. Moreover, the Ki in assay [2] is 1450 nM.

Consider `CO/N=C(/Nc1ccc(F)c([C@]2(C)CS(=O)(=O)N(C)C(=N)N2)c1)c1ccc(Cl)cn1` [Example 6], for which the Ki in assay [1] was 340 nM; in assay [2] it was 58 nM.

As for `CN1C(=N)N[C@](C)(c2cc(NC(=N)c3ccc(Br)cn3)ccc2F)CS1(=O)=O` [Example 7], the values for the Ki in assay [1] and in assay [2] were 371 nM and 148 nM, respectively.

For `CN1C(=N)N[C@](C)(c2cc(NC(=S)c3ccc(Cl)cn3)cc(F)c2F)CS1(=O)=O` [Example 8], the inhibition constant Ki in assay [1] is 9 nM; in assay [2] it was 2 nM.

As to `COc1ccc(C(=S)Nc2cc(F)c(F)c([C@]3(C)CS(=O)(=O)N(C)C(=N)N3)c2)nc1` [Example 9], the Ki in assay [1] was 57 nM; in assay [2] it was 15 nM.

In the case of `COCC(=S)Nc1cc(F)c(F)c([C@]2(C)CS(=O)(=O)N(C)C(=N)N2)c1` [Example 10], the results for the Ki in assay [1] and in assay [2] were 188 nM and 6 nM, respectively.

As for `CN1C(=N)N[C@](C)(c2cc(NC(=S)C(F)F)cc(F)c2F)CS1(=O)=O` [Example 11], the Ki in assay [1] was 95 nM; in assay [2], 28 nM.

Regarding `CN1C(=N)N[C@](C)(c2cc(NC(=S)c3ccc(F)cn3)cc(F)c2F)CS1(=O)=O` [Example 12], the inhibitory constant (Ki) was 17 nM in assay [1] and 3 nM in assay [2].

Regarding `CN1C(=N)N[C@](C)(c2cc(NC(=S)c3ccc(C(F)(F)F)cn3)cc(F)c2F)CS1(=O)=O` [Example 13], the Ki in assay [1] is 30 nM; in assay [2], 21 nM.

As to `COc1cnc(C(=S)Nc2cc(F)c(F)c([C@]3(C)CS(=O)(=O)N(C)C(=N)N3)c2)cn1` [Example 14], the Ki in assay [1] is 8 nM; in assay [2] it was 18 nM.

The values are drawn from US9447085B2, “Iminothiadiazine dioxides containing a thioamide, amidine, or amide oxime group as BACE inhibitors, compositions, and their use” (Merck Sharp & Dohme Corp., priority 2012, dated 2016).
